Experimental data reported in the supplement of paper PMC5908809.

How the values were obtained:
[1] = system: normal NK cells expanded with K562-aAPC; experiment: percent inhibition of viability; higher = more inhibition; details: 72 h, IL-2 2.5 ng/mL
Description: (§1)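 Drug sensitivity and resistance testing on K562-aAPC-expanded normal NK cells: 5 concentrations (10-fold steps over a 10,000-fold range), 72 h at 37 °C, viability by CellTiter-Glo normalised to DMSO and benzethonium chloride controls; DSS from the fitted curve.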

IMC-1 (IL-2 20 ng/mL) [2] = experiment: drug sensitivity score (DSS) (DSS units); higher = more sensitive; extreme values may be limits of the assay; details: 72 h
[3] = system: normal primary NK cells, pool 2 (3 donors) (IL-2 2.5 ng/mL); experiment: as above; details: 72 h
[4] = system: normal primary NK cells, pool 1 (3 donors) (IL-2 2.5 ng/mL); experiment: as above; details: 72 h
YT (IL-2 2.5 ng/mL) [5] = experiment: as above; details: 72 h
NK-YS (IL-2 2.5 ng/mL) [6] = experiment: as above; details: 72 h
[7] = system: normal primary NK cells, pool 1 (3 donors), resting (IL-2 0 ng/mL); experiment: as above; details: 72 h
DERL-7 (IL-2 2.5 ng/mL) [8] = experiment: as above; details: 72 h
KAI3 (IL-2 2.5 ng/mL) [9] = experiment: as above; details: 72 h
SNK-6 (IL-2 2.5 ng/mL) [10] = experiment: as above; details: 72 h
KHYG-1 (IL-2 2.5 ng/mL) [11] = experiment: as above; details: 72 h
NK-92 (IL-2 2.5 ng/mL) [12] = experiment: as above; details: 72 h
[13] = system: normal primary NK cells, pool 3 (3 donors) (IL-2 2.5 ng/mL); experiment: as above; details: 72 h
NKL (IL-2 2.5 ng/mL) [14] = experiment: as above; details: 72 h
IMC-1 (IL-2 20 ng/mL) [15] = experiment: percent inhibition of viability; higher = more inhibition; details: 72 h
[16] = system: normal primary NK cells, pool 2 (3 donors) (IL-2 2.5 ng/mL); experiment: as above; details: 72 h
[17] = system: normal primary NK cells, pool 1 (3 donors) (IL-2 2.5 ng/mL); experiment: as above; details: 72 h
YT (IL-2 2.5 ng/mL) [18] = experiment: as above; details: 72 h
NK-YS (IL-2 2.5 ng/mL) [19] = experiment: as above; details: 72 h
[20] = system: normal primary NK cells, pool 1 (3 donors), resting (IL-2 0 ng/mL); experiment: as above; details: 72 h
DERL-7 (IL-2 2.5 ng/mL) [21] = experiment: as above; details: 72 h
KAI3 (IL-2 2.5 ng/mL) [22] = experiment: as above; details: 72 h
SNK-6 (IL-2 2.5 ng/mL) [23] = experiment: as above; details: 72 h
KHYG-1 (IL-2 2.5 ng/mL) [24] = experiment: as above; details: 72 h
NK-92 (IL-2 2.5 ng/mL) [25] = experiment: as above; details: 72 h
[26] = system: normal primary NK cells, pool 3 (3 donors) (IL-2 2.5 ng/mL); experiment: as above; details: 72 h
NKL (IL-2 2.5 ng/mL) [27] = experiment: as above; details: 72 h
[28] = system: normal NK cells expanded with K562-aAPC; experiment: drug sensitivity score (DSS) (DSS units); higher = more sensitive; extreme values may be limits of the assay; details: 72 h; IL-2 2.5 ng/mL
Description: as §1

CCn1c(=O)c(-c2cc[nH]n2)cc2c(C)nc(N)nc21 [Voxtalisib] (max concentration tested 10000 nM)
percent inhibition of viability [%]
Details	1 nM	10 nM	100 nM	1000 nM	10000 nM
DERL-7 (IL-2 2.5 ng/mL) [21]	5.41	4.21	13.1	64	90.5
IMC-1 (IL-2 20 ng/mL) [15]	-10.6	-2.45	-10.8	-9.7	16.3
KAI3 (IL-2 2.5 ng/mL) [22]	-4.78	-4.19	6.21	42.3	75.8
KHYG-1 (IL-2 2.5 ng/mL) [24]	-9	-5.41	-5.59	17.8	79.4
NK-92 (IL-2 2.5 ng/mL) [25]	-8.65	11.8	10.3	47.6	82.8
NK-YS (IL-2 2.5 ng/mL) [19]	-5.07	0.15	3.01	23.8	69.5
NKL (IL-2 2.5 ng/mL) [27]	-8.64	-12.9	-1.2	46.7	80.6
SNK-6 (IL-2 2.5 ng/mL) [23]	-15.8	-23.8	-25.5	-0.25	72.2
YT (IL-2 2.5 ng/mL) [18]	-4.53	-3.54	0.98	38.7	88.6
[1]	0.41	-5.61	9.15	33.9	60.2
[16]	-10.4	2.91	12.1	20.6	40.3
[17]	-5.05	2.34	10.6	28.2	49.9
[20]	-7.13	11.3	7.69	23	43.4
[26]	-5.2	-0.71	13.1	17.8	35.1

Details	drug sensitivity score
DERL-7 (IL-2 2.5 ng/mL) [8]	13.8
IMC-1 (IL-2 20 ng/mL) [2]	0.15
KAI3 (IL-2 2.5 ng/mL) [9]	9.29
KHYG-1 (IL-2 2.5 ng/mL) [11]	7.22
NK-92 (IL-2 2.5 ng/mL) [12]	10.7
NK-YS (IL-2 2.5 ng/mL) [6]	7.02
NKL (IL-2 2.5 ng/mL) [14]	10.1
SNK-6 (IL-2 2.5 ng/mL) [10]	3.96
YT (IL-2 2.5 ng/mL) [5]	9.92
[3]	4.74
[4]	6.3
[7]	5.05
[13]	4.03
[28]	7.48
